# Experimental data taken from patent publication US11541029B2, “High penetration compositions and their applications” (Techfields Pharma Co., Ltd., priority 2008, dated 2023).
# Key:
# [1] = Distribution in organs of rats killed with CO2 (absence of general circulation); conditions: 5 hrs after 0.3 mmol/kg diethylaminoethyl acetylsalicylate HCl salt on back of killed rats;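 further: tissue concentration in nmol/g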
# Procedure: 0.3 mmol/kg of diethylaminoethyl acetylsalicylate HCl salt (10% in pure water) was applied to the back of rats (10 cm^2) which were killed with CO2. The rats were shaken for 5 hrs, then the HPCs and parent drugs in organs of rats were determined.
# normal SD rats (SLAC/SD) = assay: Blood glucose in normal SD rats treated with HPCs of NSAIAs; assay type: in vivo; conditions: 30 mg/kg transdermally once per day, no fasting
# Method in brief: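 GK (type 2 diabetic) and normal SD rats, 14-16 weeks old, n=7, received 30 mg/kg test compound in 25% ethanol transdermally on a 6 cm^2 shaved back area once daily at 8 am for 6 weeks. Non-fasting blood glucose was measured at 4:30 pm every 3 days from week 3 to week 6.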
# [2] = test system: SLAC:NOD-IDDM, type 1 diabetes; assay: Anti-diabetes (type I) activity of HPCs of NSAIAs; assay type: in vivo, mice
# Method in brief: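 Prodrugs given transdermally to the shaved back (about 1.5 cm^2) twice daily at 8 am and 5 pm for 7 weeks, dosed as equal to 20 mg/kg of NSAIA. Non-fasting blood glucose was measured every 3 days at 4:30 pm from week 4 to week 7.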
# [3] = test system: fungal diseases and insects of peach trees; assay: Antiviral, anti-fungus, anti-insect activity in peach trees; assay type: in vivo
# Procedure: 240 Peach trees were divided into 4 groups. All field operations concerning land preparation and the uses of fertilizers were same for all groups. Group A (n=60) was control group with no chemical treatments. Group B (n=60) was normal fungicides and insecticides-treated group. Group C (n=60) was treated with N,N-diethylaminoethyl acetylsalicylate plus some insecticides. Group D (n=60) was N,N-diethylaminoethyl acetylsalicylate and N,N-diethylaminoethyl jasmonate.citric acid treated group. In group A, Peach Leaf Curl, Peach Scab, Brown Rot, Black Knot and other fungal diseases were found and different scale insects, Shothole Borer, Peach tree Borer, Lesser Peachtree Borer, fruit Moth and other diseases and insects were found. No any good (edible) fruits were harvested. In group B, 100 g of ferbam [iron tris(dimethyldithiocarbamate)] […] Group C was N,N-diethylaminoethyl acetylsalicylate-treated group. 50 g of N,N-diethylaminoethyl acetylsalicylate in 50 kg of water was applied to the group C Peach trees on November 15, March 1, March 20, and June 20, 50 g of N,N-diethylaminoethyl acetylsalicylate, 125 g of Malathion 50% EC, 125 g of 1-naphthyl methylcarbamate 50% WP and 60 g of thiophanate-methyl 50% WP in 50 kg of water was applied to the group C peach trees on April 1, April 20, May 10, and May 30. Yield 3000 kg of good (edible) peaches. […]
structure (smiles),measurement,setting,value
"CCN(CC)CCOC(=O)c1ccccc1OC(C)=O.Cl [P-1, diethylaminoethyl acetylsalicylate.HCl salt]",concentration in Leg muscle,[1],5.2 ± 3.2 nmol/g
same,concentration in kidney,[1],3.1 ± 1.4 nmol/g
same,concentration in liver,[1],1.2 ± 1.1 nmol/g
same,concentration in pancreas,[1],2.7 ± 1.3 nmol/g
same,concentration in stomach,[1],4.3 ± 1.1 nmol/g
same,"blood glucose, Average (Week 2-5)",normal SD rats (SLAC/SD),5.7 ± 1.3 mmol/L
same,"blood glucose, Day 1",normal SD rats (SLAC/SD),5.8 ± 1.5 mmol/L
same,"blood glucose, Baseline",[2]; equal to 20 mg/kg of NSAIAs transdermally twice per day for 7 weeks,18.1 ± 4.5 mmol/L
same,"blood glucose, Average","[2]; fourth week to seventh week, no fasting, equal to 20 mg/kg of NSAIAs transdermally twice per day",7.5 ± 1.8 mmol/L
same,Yield of good (edible) peaches,"[3]; 60 trees per group, some insecticides/fungicides co-applied",3000 kg
same,harvest dates earlier,[3]; groups C and D,1 week
